The values below come from patent US11173133B2, “Zeaxanthin formulations with additional ocular-active nutrients, for protecting eye health and treating eye disorders” (ZeaVision LLC, priority 2003, dated 2021).

The conditions of data set [1]: naturally-occurring dextrorotatory stereoisomer; cited from earlier work.
The nature of data set [2]: small-scale tests of high-dose zeaxanthin in human volunteers (safety, skin tone). It is filed as in vivo. Particulars: dosages of 50 to 80 mg/day. On the procedure: (§1) As mentioned above, the categories of pharmaceutical preparations and dietary (nutritional) supplements overlap, and there is no specific upper limit for dosages that would cause a dietary (nutritional) supplement to be reclassified as a pharmaceutical preparation. Safety data that was gathered on zeaxanthin, using high-dosage tests involving rats, indicated a “no adverse effect limit” (NOEL) level of at least 1200 mg/day. […] Accordingly, people who want tans, or who are planning to go on a vacation or other trip that will involve exposure to abnormally high levels of sunlight, may take large quantities of zeaxanthin (up to or even exceeding 100 mg/day), to help them avoid sunburn and obtain a deeper tanned color on their skin. Such use, even at very high quantities, would be regarded as taking a dietary supplement rather than a pharmaceutical, and such dosages would still remain far below the NOAEL levels that were determined by animal tests.

Data set [3] has as its system wet macular degeneration. Briefly: laser treatment using verteporfin in a patient with wet macular degeneration taking zeaxanthin. It is filed as in vivo, human. Conditions: one patient, daily zeaxanthin capsules before and after treatment. The source says:
As another example of the uncertainties and doubts that surround zeaxanthin among skilled physicians who treat eye diseases, the Inventor has personal knowledge of a patient who has the “wet” (or “exudative”) form of macular degeneration. This disease is characterized by aggressive growth of capillaries in and around certain layers of the retina, and it leads to rapid and devastating loss of vision. The best known treatment for wet AMD is called laser photocoagulation, or photodynamic therapy. It uses a drug called verteporfin, which is activated by a laser that is shone directly into the eyes of patients who have taken the drug. In October of 2003, a ZeaVision customer (a person) who was taking zeaxanthin capsules on a daily basis was scheduled to have a laser treatment using verteporfin, at the Wilmer Eye Institute in Baltimore, which is affiliated with the Johns Hopkins School of Medicine. This patient told their treating physician, who is one of the top experts in the world on treating macular degeneration, that they were taking zeaxanthin capsules on a daily basis. […] The results of that treatment, as measured up until the date this is being written, have been outstanding, and have been much better than was expected by the treating physician. […]

The test system of data set [4] is sunburn. The data set can be described thus: sunburn after controlled high-intensity UV exposure of small skin areas in human volunteers. In kind it is in vivo. Particulars: 50 to 80 mg/day; small areas of skin exposed to medical-grade UV lamp. The method, then:
as §1

For data set [5] the following is noted: chemical / lab tests, cited from earlier work.
For data set [6] the following is noted: rats, high-dosage tests; Roche Vitamins 75-day Premarket Notification, FDA number 95S-0316; cited from earlier work.
Data set [7] concerns macular degeneration. Particulars: oral dosages; Newsome et al 1988 and others; cited from earlier work.
For data set [8], the system named is macular degeneration. Particulars: cited from earlier work.

Read-outs that look alike come from different tables or passages of the source.

With `O=C(O)CCCC[C@@H]1CCSS1` (racemic) [lipoic acid], the “anti-oxidant activity versus S (levorotatory) isomers” value in data set [1] was “better anti-oxidant activity”.
Consider `CC1=C(/C=C/C(C)=C/C=C/C(C)=C/C=C/C=C(C)/C=C/C=C(C)/C=C/C2=C(C)C[C@@H](O)CC2(C)C)C(C)(C)C[C@H](O)C1` [zeaxanthin], for which the “safety in human volunteers” value in data set [2] is recorded as “entirely safe”. The “results of laser-verteporfin treatment” value in data set [3] is on record as “outstanding”. Also, in data set [4], the “risk and severity of sunburn” value was “effective in reducing a person's risk and severity of sunburn”. Besides, the “potency in absorbing and quenching oxygen free radicals (anti-oxidant), versus lutein” value is “more potent and effective than lutein” in data set [5]; “better and more potent anti-oxidant than lutein” in data set [5] (listed as Zeaxanthin). Moreover, the “"no adverse effect limit" (NOEL) level” value in data set [6] is on record as “at least 1200 mg/day”.
In the case of `[Zn]` [zinc], in data set [7], the “results of oral zinc in macular degeneration and other ocular problems” value is “good, although not especially strong”. Further, the “level of protection against macular degeneration” value in data set [8] (AREDS-1, high dosages (zinc 80 mg/day), some but not all patient categories) is “low and weak level of protection”. Moreover, the “benefits of zinc in the AREDS-1 trial” value in data set [8] (compared with the combination of vitamins A, C, and E) was “strong enough to roughly match the benefits provided by a combination of vitamins A, C, and E”.
